{
  "source": "patent US8828993B2",
  "about": "“Psychotropic agents having glutamate NMDA activity” (Ramot At Tel-Aviv University Ltd., priority 2006, dated 2014)",
  "format_in_all_cases": "in vivo",
  "key": {"mice [1]": {"test_system": "mice", "assay": "Elevated plus maze", "conditions": "male Balb/c mice, oral, diazepam 1 mg/kg", "source_text": "The elevated plus maze is a widely used method to test anxiety in rodents (Pellow, et al., Pharmacol. Biochem. Behav., 24, 525-529 (1986)). The apparatus was made of wood and painted black, with two opposing open arms and two opposite enclosed arms of the same size. The arms were attached to a central square shaped in a plus sign. The whole apparatus was placed 50 cm above the floor. Anxious animals refrain from entering the open arm and prefer the closed arm.\nIn a typical experiment, Balb/c male mice were administered orally with 10 and 20 mg/kg of Compound 1 or Compound 6 and with a vehicle or with diazepam (1 mg/kg) administered per os (p.o.) 90 minutes before they were placed in the center of the maze. The frequency to the open aims, the time spent in the different arms, the velocity and number of rearings of the animals in each zone were recorded (Noldus).\nMale Balb/c mice were used. Animals were transferred to the behavior room 24 hr before the experiment. Compound 1 or diazepam were administered orally 90 minutes before testing. Each treatment group included 5 animals.\nMale Balb/c mice were used. Animals were transferred to the behavior room 24 hr before the experiment. Compound 6 (3, 9, or 27 mg/kg) or vehicle were administered orally 90 minutes before testing. Each treatment group included 5 animals."}, "mice [2]": {"test_system": "mice", "assay": "Forced swim test (FST)", "conditions": "male ICR mice, 20 mg/kg oral", "source_text": "This is one of the most widely used tools for screening antidepressant activity pre-clinically in acute treatment. The test was first described by Porsolt et al., (Behavioral despair in mice: a primary screening test for antidepressants. Arch. Int. Pharmacodyn. Ther. 229, pp. 327-336, 1977). The FST test is based on the observation that rats and mice develop an immobile posture when placed in an inescapable cylinder of water. This behavior is considered a behavioral despair as opposed to active form of coping with stressful conditions. The FST test is considered a good screening tool with good reliability and predictive validity.\nThree parameters were defined in the evaluation of FST:\n1. Immobility—defined in the traditional Porsolt test as when no additional activity is observed other than that required to keep the animal's head above water;\n2. Swimming behavior—being the movement (usually horizontal) throughout the chamber that also includes crossing into another quadrant;\n3. Climbing behavior—being defined as the upward-directed movements (vertical) of the forepaws along the side of the swim chamber.\nThe test in mice was conducted acutely (60-90 minutes post oral drug administration) and animals were dropped to the cylinder for 6 minutes and scoring was performed in the last 4 minutes after 2 minutes of adaptation.\nRound glass cylinders, 18 cm in diameter and 20 cm deep were used. Water temperature was 24-28° C. Four parameters were taken: immobility, velocity, distance and strong mobility. The immobility in the animals was defined by activity lower than 10% movement of the center of gravity of the animal. Swimming was defined by the distance and the velocity of the animal, and climbing was related to strong mobility (movement of center of gravidance more than 30%).\nMales Balb/c mice (Harlan Israel) were used. Animals were administered orally with Compound 1 (10 or 20 mg/kg) or with a vehicle.\nMales ICR mice were used."}, "mice [3]": {"test_system": "mice", "assay": "Open field exploratory locomotor activity", "source_text": "Open Field Exploratory Locomotor Activity\nThe procedure consists of subjecting an animal, usually a rodent, to an unknown large environment from which escape is prevented by surrounding walls. The open field test is now one of the most popular procedures in animal psychology (Crawley, et al., Exploratory behavior models of anxiety in mice, Neurosci Biobehav Rev 9 (1985), pp. 37-44). The procedure involves forced confrontation of a rodent with the situation. The animal is placed in the center or close to the walls of the apparatus and the following behavioral items are recorded for a period ranging from 5 to 20 minutes: horizontal locomotion, and frequency of rearing or leaning. In such a situation, rodents spontaneously prefer the periphery of the apparatus to activity in the central parts of the open field. Increase in time spent in the central part as well as of the ratio central/total locomotion or decrease of the latency to enter the central part are indications of anxiolysis.\nIn a typical test, an individual mouse was placed in a novel environment of a square open field (50×50 cm), the floor of which had been divided into 3 areas, as shown below. The area within 10 cm of the chamber walls was termed the periphery. […] One hour after drug administration, the animal was placed in the same corner of the field. The animal behavior in the open field was recorded by videotaping for 20-60 minutes and analyzed subsequently digitally using the Noldus software for animal behavior. The measurements included velocity, distance moved, frequency of visits to the central area, number of rearing events.\nThe effect of Compound 1 on the behavior of mice in the open field and the dose-dependent effect following i.p administration were evaluated. Naïve male Mice (Balb/c, Harlan Israel) were used. The animals, divided 3 to 5 animals per group, were administered with Compound 1 (12.5, 25, 50, 75 and 100 mg/kg) 1 hr prior to placing each in an open field. Mice were monitored for 1 hr (every 5 minutes) using the Noldus system, and their distance moved, velocity, time of immobility and number of rearings was recorded.\n(§1) The effect of Compound 6 on the behavior of mice in the open field was also examined. Naïve male mice (Balb/c, Harlan Israel) were used. Animals (6 per group) were administered with Compound 6 (12.5, 25 and 50 mg/kg, i.p.) 1 hr prior to placing each in the open field. Mice were followed for 1 hr (every 5 minutes) using the Noldus system, and their distance moved, velocity, time of immobility and number of rearings was recorded.\nThe effect of oral administration of Compound 1 in the open field was tested by orally administering to male ICR mice varying amounts of Compound 1 (5, 10 and 20 mg/kg) or vehicle. Animals were placed in the open field 1 hr after drug administration and horizontal and vertical behavior was recorded for 20 minutes.\nas §1, with “The dose-dependent” for “The”, “3 administered i.p.” for “6 on the behavior of mice”, “tested.” for “examined.”, “Animals” for “Animals (6 per group)”, “3” for “6”, “i.p., 6 per group)” for “i.p.)”\nAnimals were administered orally with Compound 1 (5, 10 and 20 mg/kg) or with a vehicle. Animals were placed in the open field 1 hr after drug administration and animal track was registered for 20 minutes. The time spent in the center (zone 3) and the frequency to the center were indicators of anxiety."}, "[4]": {"test_system": "amphetamine-induced hyperactivity in mice", "assay": "Amphetamine-induced hyperactivity and stereotypic behavior", "source_text": "The amphetamine-induced hyperactivity and motility is one of the most popular animal models for schizophrenia (Pouzet B, et al., Effects of the 5-HT(7) receptor antagonist SB-258741 in animal models for schizophrenia. Pharmacol Biochem Behav April; 71(4):655-665, 2002 and Geyer, et al., Animal behavior models of the mechanisms underlying antipsychotic atypicalicity, Progress in Neuro-Psychopharmacol & Biological Psychiatry, 27, 1071-79, 2003). Amphetamines are known to augment dopaminergic and noradrenergic neurotransmission by inducing catecholamine release and preventing catecholamine reuptake\nThe experiment was conducted with ICR male mice placed in individual barrels. […] The locomotor activity, number of rearings and head movements was recorded every 15 minutes for 2 h.\nAs stated above, the amphetamine-induced hyperactivity and motility is one of the most popular animal models for schizophrenia. The experiment was conducted with ICR male mice placed in individual barrels. Compound 1 (20 mg/kg) was administered p.o to the mice 1 hr prior to i.p. administration of amphetamine (2. mg/kg). The hyper-active behavior expressed by the number of climbings and rearings and the stereotypic behavior expressed by the number of head movements was recorded every 15 minutes over a period of 1 h.\nThe effect of Compound 3 (12.5, 25 and 50 mg/kg, i.p.) on amphetamine-induced hyperactivity in Balb/c mice was also examined. Animals (6 per group) were injected with Compound 3 (12.5, 25 and 50 mg/kg) and 30 minutes later received amphetamine (2 mg/kg ip). After 30 minutes, animals were exposed to an open field test for a period of 20 minutes."}, "[5]": {"test_system": "MK-801-induced hyperactivity in mice", "assay": "MK-801-induced hyperactivity in open field", "method": "MK-801-Induced Stereotype Behavior in Rats (in Open Field)—\nMK-801 is an analogue of PCP which inhibits NMDA receptors and elicits hyperlocomotion and stereotypic behavior in rodents and is used as an animal model of schizophrenia (Stephen, et al., Topiramate antagonizes MK-801 in an animal model of schizophrenia, Eur. J. Pharmacol. 449, 2002, 121-5). For experimentation, naïve Balb/c mice were used. MK-801 (0.15 mg/kg i.p) was administered 40 minutes after Compound 1 (or any one of the other compounds of the invention) or a vehicle, and 20 minutes prior to placing the mouse in an open field.\nAnimals placed in the open field were followed for 60 minutes and their distance moved, velocity, duration of immobility, and number of rearing events were registered using the Noldus system.\nAs stated above, MK-801 inhibits NMDA receptors and elicits hyperlocomotion. Therefore, where an antagonism of the hyperactivity-induced by the MK-801 is observed upon administration of a compound of the invention, it is an indication as to the positive modulation of the NMDA activity. In other words, such a compound may be considered as useful in the treatment of schizophrenia.\nThe effect of Compound 6 on the distance moved in Balb/c mice exposed to MK-801 ([…]) i.p. and to Compound 6 (up to 12.5 mg/kg, i.p.) administered 1 hr prior to MK-801 was also tested.\nAs stated above, MK-801 (an NMDA receptor antagonist) is a widely accepted animal model for schizophrenia. The experiment was conducted with Balb/c male mice (Harlan Il), 6 per group. Compound 1 (50 mg/kg) was administered i.p. (1 hr before experimentation), to mice alone or combined with MK-801 (0.15 mg/kg, i.p.) administered 20 minutes prior to placing the mice individually in an open field for 60 minutes. The hyper-active behavior expressed by hyperlocomotion, velocity, strong mobility, number of rearing was evaluated using the Noldus system, each point represents the mean+/−6 determinations."}, "[6]": {"conditions": "Balb/c mice, 12.5, 25 and 50 mg/kg i.p."}},
  "note": "Entries after “also recorded” stand apart in the source; their conditions may differ.",
  "data": [
    {"smiles": "CN1C(=O)CN=C(c2ccccc2)c2cc(Cl)ccc21", "note": "[diazepam, reference compound]", "values": [
      {"measurement": "number of rearings in the center", "setting": "mice [1]", "result": "significantly increased"},
      {"measurement": "number of rearings in the open arm", "setting": "mice [1]", "result": "increased number of rearings"},
      {"measurement": "velocity", "setting": "mice [1]", "result": "higher"}
    ]},
    {"smiles": "Cc1cc2c(s1)Nc1ccccc1N=C2N1CCN(C)CC1", "note": "[olanzapine, reference compound]", "values": [
      {"measurement": "distance moved", "setting": "mice [2]", "result": "significantly decreased"},
      {"measurement": "immobility", "setting": "mice [2]", "result": "increased"},
      {"measurement": "strong mobility (climbing)", "setting": "mice [2]", "result": "significantly decreased"},
      {"measurement": "velocity", "setting": "mice [2]", "result": "significantly decreased"}
    ]},
    {"smiles": "COC(=O)C(N)COCN1CCN(C2=Nc3ccccc3Nc3sc(C)cc32)CC1", "note": "(stereo not shown) [Compound 3]", "values": [
      {"measurement": "motility parameters", "setting": "mice [3]; Balb/c mice, 50 mg/kg i.p.", "result": "marked decrease"},
      {"measurement": "duration of “not moving” periods", "setting": "mice [3]; [6]", "result": "dose dependently increased"},
      {"measurement": "number of rearings vs. controls", "setting": "mice [3]; [6]", "result": "decreased"},
      {"measurement": "motility (distance moved and velocity)", "setting": "mice [3]; Balb/c mice, up to 25 mg/kg i.p.", "result": "mild decrease"},
      {"measurement": "distance moved, combined with amphetamine", "setting": "[4]; Balb/c mice, 12.5 mg/kg i.p.", "result": "normalization"},
      {"measurement": "distance moved, combined with amphetamine", "setting": "[4]; Balb/c mice, 12.5, 25 and 50 mg/kg i.p. at -60 minutes", "result": "dose-dependent decrease"},
      {"measurement": "immobility, combined with amphetamine", "setting": "[4]; Balb/c mice, 12.5, 25 and 50 mg/kg i.p., amphetamine 2 mg/kg ip", "result": "dose-dependently increased"},
      {"measurement": "effect of amphetamine (hypermotility)", "setting": "[4]; Balb/c mice, 12.5, 25 and 50 mg/kg i.p., amphetamine 2 mg/kg ip 30 minutes later, open field 20 minutes", "result": "dose-dependently antagonized"},
      {"measurement": "hyperactivity ensued by amphetamine", "setting": "[4]; Balb/c mice, already at 12.5 mg/kg i.p., 12.5 mg/kg", "result": "effective; also recorded: antagonized"},
      {"measurement": "distance moved, combined with amphetamine", "setting": "[4]; Balb/c mice, doses higher than 12.5 mg/kg i.p.", "result": "marked decrease"},
      {"measurement": "MK-801-induced hyperactivity", "setting": "[5]; Balb/c mice, 7.5 mg/kg", "result": "slight effect"},
      {"measurement": "MK-801-induced hyperactivity", "setting": "[5]; Balb/c mice, 25 mg/kg", "result": "normalization of activity"},
      {"measurement": "MK-801-induced hyperactivity", "setting": "[5]; Balb/c mice, 50 mg/kg", "result": "sedation"},
      {"measurement": "MK-801-induced hyperactivity (distance moved)", "setting": "[5]; Balb/c mice, 12.5, 25 and 50 mg/kg i.p., MK-801 0.15 mg/kg i.p.", "result": "dose dependent decrease"},
      {"measurement": "immobility (“not moving” total duration), MK-801 treated", "setting": "[5]; Balb/c mice, high dose", "result": "appeared"},
      {"measurement": "frequency to the center of the field, MK-801 treated", "setting": "[5]; Balb/c mice, low dose", "result": "tended to increase"},
      {"measurement": "time spent in the center, MK-801 treated", "setting": "[5]; Balb/c mice, low dose", "result": "tended to increase"},
      {"measurement": "immobility (“not moving” total duration), MK-801 treated", "setting": "[5]; Balb/c mice, small and intermediate doses (25 mg/kg)", "result": "not found"}
    ]}
  ]
}
